The values below come from patent US10406383B2, “Apparatus for treatment of dermatological conditions” (CAREWEAR CORP., priority 2004, dated 2019).

Molecules are shown by their SMILES. Marks after values point to notes of the source that are not given here.

For one series, the system named is HSP70 mRNA. The note with it: rats, aspirin 100 mg/kg intraperitoneally 60 min before 37° C. for 30 min; cited from earlier work.
The subject of series [1] is fibrillin-rich microfibrils proximal to the dermal-epidermal junction (DEJ). In words: Seven-day patch test, fibrillin-1 immunohistochemistry. It is filed as in vivo, human. The note with it: patch test under occlusion. An excerpt:
(§1) The standard four-day patch test assay was extended to a seven-day period to examine the effect of the Topical 1 formulation under occlusion or delivered by ultrasound on the induction of fibrillin expression as a mechanism by which clinical signs of photoageing may be improved.
Fibrillin is a major constituent of the elastin network in the papillary dermis and plays an important role in securing the epidermis to the underlying dermis. Topical application of all-trans retinoic acid (t-RA) as a positive control ameliorates the clinical signs of photoageing.
(§2) Six healthy but photoaged female volunteers were recruited (age range 52-79 years). […]
(§3) A number of extracellular matrix (ECM) molecules known to be reduced in photoaged skin were assayed by immunohistochemistry to detail the potential effects of the Topical 1 formulation and its method of delivery. […] Also assessed were the number of epidermal keratinocytes expressing MMP-1 and RARα. […]
Sections were randomised, blinded and examined on a Nikon OPTIPHOT microscope (Tokyo, Japan). For assessment of ECM components, the degree of immunostaining was assessed on a 5 point semi-quantitative scale where 0=no staining and 4=maximal staining. […] The degree of immunostaining was scored for three high power fields per section, and the average score calculated for each site/test area. […]

The test system of series [2] is HSP72 expression in the epidermis. In words: Seven-day patch test, HSP72 immunohistochemistry. The note with it: patch test under occlusion. It counts as in vivo, human.
Text: as §1
(§4) Ageing can also be monitored by examination of other molecules within the skin. Previous work has identified alterations in the expression of the enzyme matrix metalloproteinase 1 (MMP-1; essential for extracellular matrix remodelling)^3 and in the nuclear retinoid receptor retinoic acid receptor α (RARα; necessary for modulating the effects of vitamin A and its derivatives)^4. Two molecular chaperones were assessed to identify pathways for eliminating abnormal proteins; these were heat shock protein-72 (HSP72)^5 and the extracellular chaperone, clusterin^6.
as §2, §3
(§5) For cell-associated staining, the numbers of positive epidermal keratinocytes were assessed per high powered field, and the average score calculated for each site/test area. […]

For series [3], the system named is RARα expression in epidermal keratinocytes. Kind of series: Seven-day patch test, RARα immunohistochemistry. It counts as in vivo, human. The note with it: patch test under occlusion.
Text: as §1, §4, §2, §3, §5

Series [4] relates to MMP-1 expression in epidermal keratinocytes. Kind of series: Seven-day patch test, MMP-1 immunohistochemistry. It is filed as in vivo, human. The note with it: patch test under occlusion.
Text: as §1, §4, §2, §3, §5

Series [5] can be described thus: Erythema and skin tolerability observations during the trial. It is filed as in vivo, human. The note with it: patch test protocol. The method, then: Six healthy but photoaged female volunteers were recruited (age range 52-79 years). Test substances were applied separately under standard 6 mm diameter Finn chambers to the extensor aspect of the forearm: these were Topical 1 formulation (20 μl/chamber), vehicle base (20 μl/chamber) and 0.025% all-trans RA (Retin-A® cream, Janssen-Cilag Ltd., 20 μl/chamber). In addition, a baseline untreated biopsy was taken as a reference point. Formulations were applied to clean skin on days 1 and 4 of the assay. All-trans RA was applied to an untreated site on day 4. On day 8, Finn chambers were removed and 3 mm punch biopsies were obtained under 1% lignocaine anaesthesia from each of the test site. Biopsies were embedded in OCT compound (Tissue-Tek®, Miles, Ind., USA) and snap frozen in liquid nitrogen. Biopsy sites were sutured with 1×4/o ethilon and subjects instructed to return between 7-10 days for suture removal.
Ten healthy but photoaged volunteers were recruited (men: 2; female: 8; age range 40-79 years). Topical 1 formulation was applied to extensor forearms alone and with the aid of an ultrasound device (Duo Son™ unit, Orthosonics, Devon UK). Low frequency (45 kHz, 100 mW/cm^2, continuous) and high frequency (1 MHz, 1 W/cm^2 pulsed average, pulsed 20% cycle) were applied simultaneously for a period of ten minutes, during which time the ultrasound delivery head was moved over the skin. […]

The mark [6] stands for this setting: positive epidermal keratinocytes per high powered field.

Regarding `CC(=O)Oc1ccccc1C(=O)O` [aspirin, acetylsalicyclic acid], the “levels of HSP70 mRNA relative to heat treatment alone” value with HSP70 mRNA is listed as 3 to 4 fold.

Regarding `CC1=C(/C=C/C(C)=C/C=C/C(C)=C/C(=O)O)C(C)(C)CCC1` [All-trans RA, all-trans retinoic acid], in series [1] (photoaged forearm, biopsy day 8, 5 point scale 0=no staining, 4=maximal staining, p > 0.05), the “Fibrillin-1 staining Mean” value is 1.8241. The “volunteers with fibrillin-1 deposition proximal to the DEJ” value in series [1] (six volunteers) was 3/6. Also, the “effect on expression of epidermal HSP72” value in series [2] (result in words) was “significantly increased the expression of epidermal HSP72”. Moreover, the “HSP72 staining Mean” value in series [2] (setting [6]) is 77.03**. Moreover, the “effect on RARα expression in epidermal keratinocytes” value in series [3] (result in words) is given as “significantly reduced RARα expression in epidermal keratinocytes”. The “RARα staining Mean” value in series [3] (setting [6]) is listed as 6.0463. Further, the “effect on MMP-1 expression in epidermal keratinocytes” value in series [4] (result in words) is “reduced MMP-1 expression in epidermal keratinocytes, although this did not reach significance”. Further, the “MMP-1 staining Mean” value in series [4] (positive epidermal keratinocytes per high powered field, p > 0.05) is given as 5.3333. Also, the “Erythema at the site of application” value in series [5] is given as “marked erythema”.
